Results: paper PMC11573166, “Sodium-dependent glucose co-transport proteins (SGLTs) are not involved in human glucose taste detection” (PLOS ONE, 2024)

Biological target: T1, human SGLT1 (hSGLT1) (Homo sapiens, UniProt P13866)
T1 construct: gene SLC5A1; Full length human SGLT1 (NP_000334)
T1 sequence (P13866 1-664): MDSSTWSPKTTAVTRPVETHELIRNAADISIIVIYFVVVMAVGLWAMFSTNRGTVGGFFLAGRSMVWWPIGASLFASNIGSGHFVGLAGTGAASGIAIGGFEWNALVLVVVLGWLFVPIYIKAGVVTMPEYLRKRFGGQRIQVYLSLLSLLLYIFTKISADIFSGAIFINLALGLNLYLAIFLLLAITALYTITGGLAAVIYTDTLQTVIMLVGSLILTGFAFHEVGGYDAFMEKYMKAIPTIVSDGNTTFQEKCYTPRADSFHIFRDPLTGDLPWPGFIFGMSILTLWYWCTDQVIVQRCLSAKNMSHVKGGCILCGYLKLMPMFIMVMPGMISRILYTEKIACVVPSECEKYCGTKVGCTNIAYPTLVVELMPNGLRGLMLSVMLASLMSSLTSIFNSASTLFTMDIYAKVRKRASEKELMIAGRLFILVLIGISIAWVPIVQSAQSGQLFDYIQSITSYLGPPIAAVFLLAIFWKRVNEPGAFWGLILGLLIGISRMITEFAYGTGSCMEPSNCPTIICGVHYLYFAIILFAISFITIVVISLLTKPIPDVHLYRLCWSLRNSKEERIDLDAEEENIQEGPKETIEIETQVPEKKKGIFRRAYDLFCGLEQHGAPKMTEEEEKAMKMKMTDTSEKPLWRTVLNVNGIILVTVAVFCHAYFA
Experiment: FLIPR membrane potential assay in CHO cells transiently expressing hSGLT1; mock-transfected cells did not respond
Format: cell-based

EC50: 452 µM
Structure (SMILES): OC[C@H]1OC(O)[C@H](O)[C@@H](O)[C@@H]1O (stereo partly drawn) [D-glucose]
